Earlier results as cited in US11439651B2 (priority 2020, dated 2022).

Legend:
[1] = test system: SARS; details: pre-treatment with low concentrations; cultured cells or freshly obtained human nasal epithelial cells
[2] = test system: SARS particles; details: cultured human cells with SARS particles added

CCCCCCCCCCCCC/C=C/[C@@H](O)[C@@H](N)CO [sphingosine]
adhesion of and infection with the virus [1]: prevented adhesion of and infection with the virus
cellular infection [2]: prevented cellular infection
